Data from PubChem BioAssay AID330 (DTP/NCI, 2004).
Several values for one entry are separate records, joined by “and”; a condition that tells them apart may be missing. Identical values can stand only once. Toxic doses and inconclusive results are not listed.

System: P388 leukemia ip, CD2F1 mice, survival T/C
Assay: NCI In Vivo Anticancer Drug Screen. Data for tumor model P388 Leukemia (intraperitoneal) in CD2F1 (CDF1) mice
Conditions: endpoint: median survival time, higher = longer survival
Summary of the method: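 Mice carrying the transplanted tumor received test compound or vehicle. Survival was recorded in each group, and the value is the treated-group measurement divided by that of the vehicle-treated control group.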

[1] = dose: 50.0 mg/kg/injection, schedule: Q01DX009 (ip), vehicle: saline with Tween-80
[2] = dose: 60.0 mg/kg/injection, schedule: Q01DX005 (ip), vehicle: saline with Tween-80
[3] = dose: 120.0 mg/kg/injection, schedule: Q01DX005 (ip), vehicle: saline with Tween-80
[4] = dose: 50.0 mg/kg/injection, schedule: Q01DX005 (ip), vehicle: distilled water + alcohol
[5] = dose: 100.0 mg/kg/injection, schedule: Q01DX005 (ip), vehicle: distilled water + alcohol
[6] = dose: 200.0 mg/kg/injection, schedule: Q01DX005 (ip), vehicle: distilled water + alcohol
[7] = dose: 100.0 mg/kg/injection, schedule: Q01DX001 (ip), vehicle: saline with Tween-80
[8] = dose: 50.0 mg/kg/injection, schedule: Q01DX005 (ip), vehicle: Klucel (hydroxypropylcellulose) (HPC)
[9] = dose: 100.0 mg/kg/injection, schedule: Q01DX005 (ip), vehicle: Klucel (hydroxypropylcellulose) (HPC)
[10] = dose: 60.0 mg/kg/injection, schedule: Q01DX005 (ip), vehicle: Klucel (hydroxypropylcellulose) (HPC)
[11] = dose: 120.0 mg/kg/injection, schedule: Q01DX005 (ip), vehicle: Klucel (hydroxypropylcellulose) (HPC)
[12] = dose: 240.0 mg/kg/injection, schedule: Q01DX005 (ip), vehicle: Klucel (hydroxypropylcellulose) (HPC)
[13] = dose: 12.5 mg/kg/injection, schedule: Q01DX009 (ip), vehicle: saline
[14] = dose: 25.0 mg/kg/injection, schedule: Q01DX009 (ip), vehicle: saline
[15] = dose: 50.0 mg/kg/injection, schedule: Q01DX005 (ip), vehicle: saline with Tween-80
[16] = dose: 100.0 mg/kg/injection, schedule: Q01DX005 (ip), vehicle: saline with Tween-80
[17] = dose: 100.0 mg/kg/injection, schedule: Q01DX009 (ip), vehicle: saline with Tween-80
[18] = dose: 200.0 mg/kg/injection, schedule: Q01DX009 (ip), vehicle: saline with Tween-80

`CCCCCCCCCCCCCS` was tested, and the T/C [1] was 118 % of control and the T/C (dose: 132.0 mg/kg/injection, schedule: Q04DX003 (ip), vehicle: saline with Tween-80) was 104 % of control.
`Cc1ccc2cccc(CC(=O)NN)c2c1` was tested, and the T/C [2] was 104 % of control and the T/C [3] was 97 % of control.
With `CCOC(=O)Nc1nn(-c2ccccn2)c(=O)[nH]1` the T/C [4] was 107 % of control, the T/C [5] was 101 % of control and the T/C [6] was 99 % of control.
In the case of `CCOC(=O)c1ccccc1NC(=O)C1C2C=CC(C2)C1C(=O)O` (stereo not drawn), the T/C (dose: 50.0 mg/kg/injection, schedule: Q01DX009 (ip), vehicle: saline + alcohol) is reported as 103 % of control, the T/C (dose: 100.0 mg/kg/injection, schedule: Q01DX009 (ip), vehicle: saline + alcohol) is reported as 104 % of control and the T/C (dose: 200.0 mg/kg/injection, schedule: Q01DX009 (ip), vehicle: saline + alcohol) is reported as 97 % of control.
`O=C1CSC(c2ccc(F)cc2F)N1c1nncs1` (stereo not drawn) was tested, and the T/C [2] was 92 % of control and the T/C [3] was 91 % of control.
For `O=NN(CCCl)C(=O)Oc1c(Cl)cc(Cl)cc1Cl`, the T/C (dose: 50.0 mg/kg/injection, schedule: Q01DX001 (ip), vehicle: saline with Tween-80) was 163 % of control, the T/C (dose: 67.0 mg/kg/injection, schedule: Q01DX001 (ip), vehicle: saline with Tween-80) was 99 % of control and the T/C [7] was 193 % of control.
`C#CCn1c(=O)c2cc3ccccc3nc2n(CC#C)c1=O` was tested, and the T/C [8] was 96 % of control and the T/C [9] was 93 % of control.
For `CCOC(=O)c1cc(=O)[nH]c2cc(N)ccc12`, the T/C [10] was 97 % of control, the T/C [11] was 93 % of control and the T/C [12] was 91 % of control.
In the case of `O=c1cncc[nH]1`, the T/C [13] is reported as 105 % of control, the T/C [14] is reported as 108 % of control and the T/C (dose: 50.0 mg/kg/injection, schedule: Q01DX009 (ip), vehicle: saline) is reported as 108 % of control. The T/C (dose: 100.0 mg/kg/injection, schedule: Q01DX009 (ip), vehicle: saline) was 109 % of control and the T/C (dose: 200.0 mg/kg/injection, schedule: Q01DX009 (ip), vehicle: saline) was 96 % of control.
`Cc1ccc2ncccc2c1` was tested, and the T/C (dose: 50.0 mg/kg/injection, schedule: Q04DX003 (ip), vehicle: saline with Tween-80) was 102 % of control, the T/C (dose: 100.0 mg/kg/injection, schedule: Q04DX003 (ip), vehicle: saline with Tween-80) was 101 % of control and the T/C (dose: 200.0 mg/kg/injection, schedule: Q04DX003 (ip), vehicle: saline with Tween-80) was 98 % of control.
`NC(=O)/C=C1\NC(=O)CS1` was tested, and the T/C (dose: 100.0 mg/kg/injection, schedule: Q01DX009 (ip), vehicle: saline sonified) was 95 % of control, the T/C (dose: 200.0 mg/kg/injection, schedule: Q01DX009 (ip), vehicle: saline sonified) was 90 % of control and the T/C (dose: 400.0 mg/kg/injection, schedule: Q01DX009 (ip), vehicle: saline sonified) was 95 % of control.
For `Cc1cc(=O)n2c(nc3ccccc32)s1`, the T/C (dose: 50.0 mg/kg/injection, schedule: Q01DX009 (ip), vehicle: Klucel (hydroxypropylcellulose) (HPC)) was 109 % of control, the T/C (dose: 100.0 mg/kg/injection, schedule: Q01DX009 (ip), vehicle: Klucel (hydroxypropylcellulose) (HPC)) was 96 % of control and the T/C (dose: 200.0 mg/kg/injection, schedule: Q01DX009 (ip), vehicle: Klucel (hydroxypropylcellulose) (HPC)) was 109 % of control.
For `Cc1ccc(NC(=O)CCCC(=O)C(C#N)c2ccccc2C)cc1C` (stereo not drawn), the T/C [2] was 113 % of control, the T/C [3] was 103 % of control and the T/C (dose: 240.0 mg/kg/injection, schedule: Q01DX005 (ip), vehicle: saline with Tween-80) was 102 % of control.
With `CCN(CC)c1ccc2cc(S(=O)(=O)c3ccc(Cl)cc3)c(=O)oc2c1` the T/C [15] was 86 % of control and the T/C [16] was 92 % of control.
`COc1ccc(CC2c3cc(OC)c(OC)cc3CCN2C)cc1OC` (stereo not drawn) was tested, and the T/C (dose: 1.5 mg/kg/injection, schedule: Q01DX005 (ip), vehicle: saline with Tween-80) was 97 % of control, the T/C (dose: 3.0 mg/kg/injection, schedule: Q01DX005 (ip), vehicle: saline with Tween-80) was 98 % of control and the T/C (dose: 6.0 mg/kg/injection, schedule: Q01DX005 (ip), vehicle: saline with Tween-80) was 99 % of control. The T/C [1] was 91 % of control.
`Nc1nc(=O)nc2[nH]c3c4cccc5cccc(c3nc12)c54` (tested in a mixture with another compound) was tested, and the T/C (dose: 12.5 mg/kg/injection, schedule: Q01DX005 (ip), vehicle: Klucel (hydroxypropylcellulose) (HPC)) was 92 % of control and 98 % of control, the T/C (dose: 25.0 mg/kg/injection, schedule: Q01DX005 (ip), vehicle: Klucel (hydroxypropylcellulose) (HPC)) was 101 % of control and 104 % of control and the T/C [8] was 100 % of control and 106 % of control and 112 % of control. For the same compound, the T/C [9] was 116 % of control.
With `Nc1ccc(NCC2CCCN3CCCCC23)c2c(=O)c3ccccc3sc12` (stereo not drawn) the T/C (dose: 13.25 mg/kg/injection, schedule: Q01DX005 (ip), vehicle: saline with Tween-80) was 104 % of control, the T/C (dose: 26.5 mg/kg/injection, schedule: Q01DX005 (ip), vehicle: saline with Tween-80) was 101 % of control and the T/C (dose: 53.0 mg/kg/injection, schedule: Q01DX005 (ip), vehicle: saline with Tween-80) was 103 % of control. The T/C (dose: 90.0 mg/kg/injection, schedule: Q01DX005 (ip), vehicle: saline with Tween-80) was 94 % of control, the T/C (dose: 106.0 mg/kg/injection, schedule: Q01DX005 (ip), vehicle: saline with Tween-80) was 100 % of control and the T/C (dose: 180.0 mg/kg/injection, schedule: Q01DX005 (ip), vehicle: saline with Tween-80) was 94 % of control. The T/C (dose: 360.0 mg/kg/injection, schedule: Q01DX005 (ip), vehicle: saline with Tween-80) was 95 % of control.
In the case of `Nc1nc(-c2cccc([N+](=O)[O-])c2)cc(-c2cc(-c3cccc([N+](=O)[O-])c3)nc(N)n2)n1`, the T/C [10] is reported as 94 % of control, the T/C [11] is reported as 90 % of control and the T/C [12] is reported as 96 % of control.
In the case of `O=C1CCN(Cc2ccccc2)C(=O)N1`, the T/C [1] is reported as 100 % of control, the T/C [17] is reported as 105 % of control and the T/C [18] is reported as 100 % of control.
With `CCN(CC)C(=O)OC1c2ccccc2C2CC1c1ccccc1C2O` (stereo not drawn) the T/C (dose: 100.0 mg/kg/injection, schedule: Q04DX003 (ip), vehicle: Klucel (hydroxypropylcellulose) (HPC)) was 97 % of control, the T/C (dose: 200.0 mg/kg/injection, schedule: Q04DX003 (ip), vehicle: Klucel (hydroxypropylcellulose) (HPC)) was 102 % of control and the T/C (dose: 400.0 mg/kg/injection, schedule: Q04DX003 (ip), vehicle: Klucel (hydroxypropylcellulose) (HPC)) was 89 % of control.
In the case of `COc1ccc(Cc2cc(C(C)(C)C)cc(C(C)(C)C)c2OC)cc1`, the T/C [4] is reported as 99 % of control, the T/C [5] is reported as 96 % of control and the T/C [6] is reported as 99 % of control.
`CC1CCC2N(C1)CC1C3(O)CC45OC6(O)C(O)CCC4(C)C6CCC5C3(O)CC(O)C1(O)C2(C)O` (stereo not drawn) was tested, and the T/C (dose: 3.12 mg/kg/injection, schedule: Q01DX009 (ip), vehicle: saline with Tween-80) was 103 % of control, the T/C (dose: 6.25 mg/kg/injection, schedule: Q01DX009 (ip), vehicle: saline with Tween-80) was 112 % of control and the T/C (dose: 12.5 mg/kg/injection, schedule: Q01DX009 (ip), vehicle: saline with Tween-80) was 98 % of control. For the same compound, the T/C (dose: 25.0 mg/kg/injection, schedule: Q01DX005 (ip), vehicle: saline) was 114 % of control, the T/C (dose: 25.0 mg/kg/injection, schedule: Q01DX009 (ip), vehicle: saline with Tween-80) was 103 % of control and the T/C (dose: 50.0 mg/kg/injection, schedule: Q01DX005 (ip), vehicle: saline) was 109 % of control. For the same compound, the T/C [1] was 98 % of control and the T/C (dose: 100.0 mg/kg/injection, schedule: Q01DX005 (ip), vehicle: saline) was 107 % of control.
For `O=C(/C=C/c1cccs1)c1ccc(Nc2ccnc3cc(Cl)ccc23)cc1`, the T/C [7] was 94 % of control, the T/C (dose: 200.0 mg/kg/injection, schedule: Q01DX001 (ip), vehicle: saline with Tween-80) was 98 % of control and the T/C (dose: 400.0 mg/kg/injection, schedule: Q01DX001 (ip), vehicle: saline with Tween-80) was 94 % of control.
For `N.N.N.N.N.N.[Cl-].[Pt]`, the T/C [13] was 92 % of control and the T/C [14] was 97 % of control.
`N#CC1=C(NC(N)=O)CCCC1` was tested, and the T/C [10] was 106 % of control, the T/C [11] was 100 % of control and the T/C [12] was 106 % of control.
In the case of `O=C(O)C1=C(C=C2CCCCC2)OCCC1`, the T/C [1] is reported as 88 % of control, the T/C [17] is reported as 92 % of control and the T/C [18] is reported as 95 % of control.
In the case of `CCOC(=O)C1(C(O)(C2CC2)C2(C(=O)OCC)CC2)CC1`, the T/C [15] is reported as 100 % of control, the T/C [16] is reported as 102 % of control and the T/C (dose: 200.0 mg/kg/injection, schedule: Q01DX005 (ip), vehicle: saline with Tween-80) is reported as 100 % of control.
